From patent US8063043B2, “Salts of N-[6-cis-2,6-dimethylmorpholin-4-yl)pyridine-3-yl]-2-methyl-4′-(trifluoromethoxy)[1,1′-biphenyl]-3-carboxamide” (Novartis AG, priority 2008, dated 2011)
Like-named read-outs stand apart in the source and are kept apart here.

Experiment: Rat PK of suspension formulations, free form vs diphosphate salt
Assay type: in vivo
[1] = 3.0 mg/kg PO dose in suspension, mean
[2] = in vivo, 3.0 mg/kg PO dose in suspension, mean
[3] = in vivo, IV 3 mg/kg, mean, n = 2

Question: Which AUCinf/dose [1] does the source give for Cc1c(C(=O)Nc2ccc(N3C[C@@H](C)O[C@@H](C)C3)nc2)cccc1-c1ccc(OC(F)(F)F)cc1 [Free base] here?
Answer: The AUCinf/dose was 171 nM·h/mg/kg.

Question: What about the AUClast/dose [1] of the same compound?
Answer: Its AUClast/dose is 170 nM·h/mg/kg.

Question: What about the Cmax/Dose [1] of the same compound?
Answer: Its Cmax/Dose is 78.9 nM/mg/kg.

Question: What about the AUCinf/dose (IV 3 mg/kg, mean, n = 2) of the same compound?
Answer: Its AUCinf/dose is 5840 nM·h/mg/kg.

Question: What about the AUClast/dose (IV 3 mg/kg, mean, n = 2) of the same compound?
Answer: The AUClast/dose was 5830 nM·h/mg/kg.

Question: And the bioavailability (in vivo, 3.0 mg/kg PO dose in suspension)?
Answer: The bioavailability was 3%.

Question: What about the AUC(0-inf) [2] of the same compound?
Answer: Its AUC(0-inf) is 0.512 µM·h.

Question: What about the AUC(0-t) [2] of the same compound?
Answer: Its AUC(0-t) is 0.51 µM·h.

Question: What about the tmax [2] of the same compound?
Answer: Its tmax is 30 min.

Question: And the Cmax (in vivo, 3.0 mg/kg PO dose in suspension, mean, read-out: C0/Cmax)?
Answer: The Cmax was 0.237 µM.

Question: What about the AUC(0-inf) [3] of the same compound?
Answer: The AUC(0-inf) was 17.5 µM·h.

Question: What about the AUC(0-t) [3] of the same compound?
Answer: Its AUC(0-t) is 17.5 µM·h.

Question: What about the Cmax (in vivo, IV 3 mg/kg, mean, n = 2, read-out: C0/Cmax) of the same compound?
Answer: The Cmax was 6.11 µM.
